{"source": "patent EP2818472A1", "about": "“Imidazo[4,5-c]pyridine and pyrrolo[3,2-c]pyridine compounds as G-protein-coupled receptor kinase 5 (GRK5) modulators” (Max-Planck-Gesellschaft zur Förderung der Wissenschaften …, priority 2013, dated 2014)", "key": {"[1]": {"test_system": "beta-TC6 cells", "test": "Insulin release by beta-TC6 cells in high glucose medium, rat/mouse insulin ELISA", "assay_type": "cell-based", "details": "2 h; for Insulin release by beta-TC6 cells at 5µM [%]: 5 µM compound, high glucose (4.5 g/L) DMEM, % increase in regard to the DMSO control (set at 0%); for effect on the insulin release by beta-TC6 cells compared with the positive control Sunitinib: 5 µM, high glucose (4.5 g/L)", "description": "After having identified the most promising compounds acting as GRK5 inhibitors and determined the IC50 values, the effect of the compounds of the example 2 on the release of insulin by beta-TC6 was determined. […] Release of insulin was detected using a rat/mouse insulin ELISA.\nTo order to measure the insulin released by beta-TC6 insulinoma (mouse) cells upon treatment with the compounds of the present invention, beta-TC6 insulinoma (mouse)cells were washed and incubated for 2 h in high (4.5 g/L) or low (1.125 g/L) glucose media at 37 °C. After incubation, the supernatant of the beta-TC6 insulinoma cells was diluted 1:20. The insulin release was measured with rat/mouse insulin ELISA (Merck Millipore Darmstadt, Cat. # EZRMI-13K) by following the manufacture protocol. The enzyme activity of the horseradish peroxidase of the immobilized biotinylated antibodies was monitored spectrophotometrically by the increased absorbency at 490 nm, and corrected by the absorbency at 610 nm. […] Table 3: Insulin release by beta-TC6 cells treated with the compounds of the present invention (the % values are in regard to the DMSO control, thus 30% means an increase of insulin release of 30% in regard to the physiological conditions where the insulin release is set at 0%)"}, "[2]": {"test_system": "beta-TC6 cells", "test": "Insulin HTRF assay (relative activity Ar) in beta-TC6 cells", "assay_type": "cell-based, mouse", "details": "Mus musculus, Beta-TC6, 4 h, insulin HTRF, supernatant of beta-TC6 cells, incubation with test compound at 37°C for 2, 3, 4h; read-out: Ar (relative activity)", "in_short": "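beta-TC6 cells (15k/well, seeded 24 or 48 h) washed, then exposed to compound in induction buffer (0.5% DMSO final) for 2, 3 or 4 h at 37°C.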"}, "[3]": {"test_system": "C2C12 cells", "test": "2-NBDG glucose uptake in C2C12 cells, flow cytometry", "assay_type": "cell-based", "details": "5 µM compound, 1 h, glucose free media with 100 µM 2-NBDG", "description": "To investigate the impact of the GRK5 inhibitors on glucose uptake, the fluorescent D-glucose analog 2-[N-(7-nitrobenz-2-oxa-1,3-diazol-4-yl)-amino]-2-deoxy-D-glucose (2-NBDG) was used. 2-NBDG is a fluorescently-labeled deoxyglucose analog that is commonly used to directly monitor glucose uptake by living cells. For 2-NBDG detection, cells were cultured for 1 h together with 5 µM of an inventive compound in glucose free media supplied with 100 µM 2-NBDG at 37 °C before collecting. Furthermore, as internal controls, samples of glucose free media, respectively glucose free media with test compound, were tested. Subsequently, cells were washed, trypsinized and harvested in ice-cold PBS before centrifuged at 1.6 x10^3 rpm at 4°C. Cells were analyzed by flow cytometry (FACS Calibur, BD Bioscience, respectively a BD Accuri® C6 Flow Cytometer). For evaluation, cells were gated using the side- and forward scatter SSC/FSC and quantified by excited at 488 nm and collected at […] (FL1). Table 4: 2-NBDG glucose uptake (%) by cells treated with the compounds of the present application"}, "[4]": {"test_system": "beta-TC6 cells", "test": "Glucose dependent insulin release by beta-TC6 cells in low glucose medium, rat/mouse insulin ELISA", "assay_type": "cell-based", "design": "unit not given here", "details": "media with 1.125 mM (20 mg/dL) glucose, 2 h, compared with DMSO control"}}}
{"smiles": "COc1ccc(Nc2nccc3[nH]c(-c4cccc(OC)c4F)nc23)cc1", "note": "[Compound 475, 2-(2-fluoro-3-methoxy-phenyl)-N-(4-methoxyphenyl)-1H-imidazo[4,5-c]pyridin-4-amine]", "values": [{"measurement": "Insulin release by beta-TC6 cells at 5µM [%]", "setting": "[1]", "value": 48.72, "unit": "%"}, {"measurement": "Emax", "setting": "[2]", "value": "50 to 100", "unit": "%"}]}
{"smiles": "COc1ccc(Nc2cc3c(cn2)cc(-c2cnn(C)c2)n3C)cc1", "note": "[Compound 137, N-(4-methoxyphenyl)-1-methyl-2-(1-methylpyrazol-4-yl)pyrrolo[3,2-c]pyridin-6-amine]", "values": [{"measurement": "2-NBDG Glucose Uptake [%]", "setting": "[3]", "value": 69.73, "unit": "%"}, {"measurement": "Emax", "setting": "[2]", "value": "50 to 100", "unit": "%"}]}
{"smiles": "COc1ccc(-c2nc3c(Nc4ccc(OC)c(OC)c4)nccc3[nH]2)cc1", "note": "[Compound 392, N-(3,4-dimethoxyphenyl)-2-(4-methoxyphenyl)-1H-imidazo[4,5-c]pyridin-4-amine]", "values": [{"measurement": "Insulin release by beta-TC6 cells at 5µM [%]", "setting": "[1]", "value": 30.52, "unit": "%"}, {"measurement": "Emax", "setting": "[2]", "value": "50 to 100", "unit": "%"}]}
{"smiles": "CCN(CC)CCNC(=O)c1c(C)[nH]c(/C=C2\\C(=O)Nc3ccc(F)cc32)c1C", "note": "[Sunitinib]", "values": [{"measurement": "insulin release in low glucose media", "setting": "[4]", "value": "0.77 ± 0.03"}]}
{"smiles": "NC(=O)c1ccc(Nc2cc3[nH]c(-c4cccc(F)c4)cc3cn2)cc1", "note": "[Compound 6, 4-[[2-(3-fluorophenyl)-1H-pyrrolo[3,2-c]pyridin-6-yl]amino]benzamide]", "values": [{"measurement": "2-NBDG Glucose Uptake [%]", "setting": "[3]", "value": 45.35, "unit": "%"}, {"measurement": "Insulin release by beta-TC6 cells at 5µM [%]", "setting": "[1]", "value": 81.25, "unit": "%"}, {"measurement": "effect on the insulin release by beta-TC6 cells compared with the positive control Sunitinib", "setting": "[1]", "value": "level similar to Sunitinib"}, {"measurement": "Emax", "setting": "[2]", "value": "50 to 100", "unit": "%"}]}
{"smiles": "CN1CCN(c2ccc(Nc3cc4[nH]c(-c5cccc(N)c5)cc4cn3)cc2)CC1", "note": "[Compound 3, 2-(3-aminophenyl)-N-[4-(4-methylpiperazin-1-yl)phenyl]-1H-pyrrolo[3,2-c]pyridin-6-amine]", "values": [{"measurement": "2-NBDG Glucose Uptake [%]", "setting": "[3]", "value": 38.51, "unit": "%"}, {"measurement": "Insulin release by beta-TC6 cells at 5µM [%]", "setting": "[1]", "value": 15.43, "unit": "%"}, {"measurement": "Emax", "setting": "[2]", "value": "> 100", "unit": "%"}]}
{"smiles": "COc1ccccc1-c1cc2c(Nc3ccc(SC)cc3)nccc2n1C", "note": "[Compound 305, 2-(2-methoxyphenyl)-1-methyl-N-(4-methylsulfanylphenyl)pyrrolo[3,2-c]pyridin-4-amine]", "values": [{"measurement": "2-NBDG Glucose Uptake [%]", "setting": "[3]", "value": 50.81, "unit": "%"}, {"measurement": "Insulin release by beta-TC6 cells at 5µM [%]", "setting": "[1]", "value": 20.24, "unit": "%"}, {"measurement": "Emax", "setting": "[2]", "value": "30 to 50", "unit": "%"}]}
{"smiles": "Cn1c(-c2cccnc2)cc2c(Nc3cccc(C(F)(F)F)c3)nccc21", "note": "[Compound 243, 1-methyl-2-(3-pyridyl)-N-[3-(trifluoromethyl)phenyl]pyrrolo[3,2-c]pyridin-4-amine]", "values": [{"measurement": "2-NBDG Glucose Uptake [%]", "setting": "[3]", "value": 48.87, "unit": "%"}, {"measurement": "Insulin release by beta-TC6 cells at 5µM [%]", "setting": "[1]", "value": 142.26, "unit": "%"}, {"measurement": "effect on the insulin release by beta-TC6 cells compared with the positive control Sunitinib", "setting": "[1]", "value": "better effect on the insulin release by beta-TC6 cells than the positive control Sunitinib"}, {"measurement": "Emax", "setting": "[2]", "value": "0 to 30", "unit": "%"}]}
{"smiles": "CNc1nc2cnc(-c3ccc4c(c3)OCO4)cc2n1-c1cccc(F)c1", "note": "[Compound 885, 6-(1,3-benzodioxol-5-yl)-1-(3-fluorophenyl)-N-methyl-imidazo[4,5-c]pyridin-2-amine]", "values": [{"measurement": "Emax", "setting": "[2]", "value": "0 to 30", "unit": "%"}]}
{"smiles": "CNc1nc2cnc(Nc3ccc4c(c3)OCCO4)cc2n1Cc1cccnc1", "note": "[Compound 561, N6-(2,3-dihydro-1,4-benzodioxin-6-yl)-N2-methyl-1-(3-pyridylmethyl)imidazo[4,5-c]pyridine-2,6-diamine]", "values": [{"measurement": "Emax", "setting": "[2]", "value": "> 100", "unit": "%"}]}
{"smiles": "Cc1cccc(CNc2nc3cnc(Nc4cccc(O)c4)cc3n2C)c1", "note": "[Compound 585, 3-[[1-methyl-2-(m-tolylmethylamino)imidazo[4,5-c]pyridin-6-yl]amino]phenol]", "values": [{"measurement": "Emax", "setting": "[2]", "value": "50 to 100", "unit": "%"}]}
{"smiles": "c1cncc(-c2cc3c(Nc4ccc5c(c4)OCCO5)nccc3[nH]2)c1", "note": "[Compound 232, N-(2,3-dihydro-1,4-benzodioxin-6-yl)-2-(3-pyridyl)-1H-pyrrolo[3,2-c]pyridin-4-amine]", "values": [{"measurement": "Emax", "setting": "[2]", "value": "50 to 100", "unit": "%"}]}
